Tests used:
CDK2/CycE = biological target: T1, CDK2/CycE (Homo sapiens, UniProt P24941); experiment: CDK2/CycE kinase assay (Assay 2); assay type: biochemical; conditions: 0.5 μM ATP, histon IIIS substrate; read-out: CDK2/CycE (Assay 2) Concentration for 50% inhibition of enzyme activity, IC50
T1 construct: purchased ProQinase GmbH, Freiburg; host or cells: baculovirus-infected insect cells (Sf9)
Experimental: 10.2 Assay 2: CDK2/CycE Kinase Assay
Recombinant CDK2 and CycE-GST fusion proteins, purified from baculovirus-infected insect cells (Sf9), were purchased from ProQinase GmbH, Freiburg. Histon IIIS, used as kinase substrate, was purchased from the company Sigma. CDK2/CycE (50 ng/measuring point) was incubated for 10 min at 22° C. in the presence of various concentrations of test substances (0 μM, and within the range 0.01-100 μM) in assay buffer [50 mM Tris/HCl pH8.0, 10 mM MgCl2, 0.1 mM Na ortho-vanadate, 1.0 mM dithiothreitol, 0.5 μM adenosine triphosphate (ATP), 10 μg/measuring point histon IIIS, 0.2 μCi/measuring point ^33P-gamma ATP, 0.05% NP40, 1.25% dimethylsulfoxide]. The reaction was stopped by adding EDTA solution (250 mM, pH8.0, 15 μl/measuring point).
From each reaction mixture, 15 μl was applied to P30 filter strips (from Wallac), and unincorporated ^33P-ATP was removed by washing the filter strips three times, for 10 min each time, in 0.5% phosphoric acid. After drying the filter strips for 1 hour at 70° C., the filter strips were covered with scintillator strips (MeltiLex™ A, from Wallac) and stoved for 1 hour at 90° C. The amount of incorporated ^33P (substrate phosphorylation) was determined by scintillation measurement in a gamma-radiation measuring instrument (Wallac). The measured data were standardized to 0% inhibition (enzyme reaction without inhibitor) and 100% inhibition (all assay components except enzyme). The IC50 values were determined by means of a 4-parameter fit using the company's own software.

[1] = system: HeLa-MaTu cervical carcinoma cells; experiment: Proliferation assay (Assay 4), crystal violet staining; assay type: cell-based; conditions: Homo sapiens, 96 h, 4 days incubation; read-out: HeLa-MaTu (Assay 4) Concentration for 50% inhibition of cellular proliferation, IC50
Experimental: 10.4 Assay 4: Proliferation Assay
Cultivated human HeLa-MaTu cervical carcinoma cells (obtained from EPO-GmbH, Berlin) were plated at a density of 3000 cells/measuring point in a 96-well multititer is plate in 200 μl of growth medium (DMEM/HAMS F12, 2 mM L-glutamine, 10% fetal calf serum). After 24 hours the cells of one plate (zero-point plate) were stained with crystal violet (see below), whereas the medium of the other plates was replaced with fresh culture medium (200 μl), to which the test substances had been added at various concentrations (0 μM, and in the range 0.01-30 μM; the final concentration of the solvent dimethylsulfoxide was 0.5%). The cells were incubated for 4 days in the presence of the test substances. Cellular proliferation was determined by staining the cells with crystal violet: the cells were fixed by adding 20 μl/measuring point of an 11% glutaraldehyde solution for 15 min at room temperature. After washing the fixed cells with water three times, the plates were dried at room temperature. The cells were stained by adding 100 μl/measuring point of a 0.1% crystal violet solution (pH adjusted to pH3 by adding acetic acid). After washing the stained cells with water three times, the plates were dried at room temperature. The dye was dissolved by adding 100 μl/measuring point of a 10% acetic acid solution. The extinction was determined photometrically at a wavelength of 595 nm. The percentage change in cell growth was calculated by standardization of the measured values to the extinction values of the zero-point plate (=0%) and the extinction of the untreated (0 μM) cells (=100%). The measured data were standardized to 0% inhibition (cell proliferation without inhibitor) and 100% inhibition (zero-point plate). The IC50 values were determined by means of a 4-parameter fit using the company's own software.

`C[C@@H](O)[C@@H](C)Oc1nc(Nc2ccc(S(=N)(=O)C3CC3)cc2)ncc1Br` (single isomer, unassigned) [Example V14] was tested, and the IC50 (CDK2/CycE) was 7 nM and the IC50 [1] was 10 nM.

Work on `CCS(=N)(=O)c1ccc(Nc2ncc(Br)c(N[C@H](C)[C@@H](C)O)n2)cc1` (stereo partly shown) [Example V12] yielded an IC50 (CDK2/CycE) of 3 nM and an IC50 [1] of 13 nM.

Source: patent US8735412B2, “Sulfoximine-substituted anilinopyrimidine derivatives as CDK inhibitors, the production thereof, and use as medicine” (Bayer Intellectual Property GmbH, priority 2008, dated 2014)
